Source: DBAASP
≈ marks a conversion by molar mass, not a printed value.

Columns and labels:
Assay in all cases: ≥ marks a high value that may be exact or a test limit, other limits are often not marked, values filed in µg/mL are converted to µM
[1] = tested on: Escherichia coli ATCC 25922
[2] = tested on: Staphylococcus aureus ATCC 25923
Escherichia coli = tested on: Escherichia coli
Staphylococcus aureus = tested on: Staphylococcus aureus
[3] = tested on: Pseudomonas aeruginosa ATCC 27853

Row | Structure (SMILES) | MIC [1] | MIC [2] | MIC (Escherichia coli) | MIC (Staphylococcus aureus) | MIC [3]
1 | CC[C@H](C)[C@H](NC(=O)[C@@H](NC(=O)[C@H](CCCCN)NC(=O)[C@H](CC(C)C)NC(=O)[C@H](CC(C)C)NC(=O)CN)C(C)C)C(=O)N[C@@H](CCCCN)C(=O)N[C@H](C(=O)N[C@@H](CC(C)C)C(=O)N[C@@H](CC(C)C)C(N)=O)C(C)C [GLLKVIKVLL] | 25.6 µM (≈ 28 µg/mL) | 12.8 µM (≈ 14 µg/mL) |  |  | 
2 | CC[C@H](C)[C@H](N)C(=O)N[C@H](C(=O)N[C@@H](CO)C(=O)N[C@H](C(=O)N[C@H](C(=O)NCC(=O)N[C@@H](CCCCN)C(=O)N[C@@H](CC(C)C)C(=O)N[C@H](C(=O)N[C@@H](CCCCN)C(=O)N[C@@H](Cc1c[nH]c2ccccc12)C(=O)N[C@H](C(=O)N[C@H](C(=O)N[C@@H](CCCCN)C(=O)N[C@H](C(=O)N[C@H](C(=O)N[C@@H](CC(N)=O)C(=O)N[C@@H](CCCCN)C(=O)N[C@@H](Cc1ccccc1)C(=O)N[C@H](C(=O)N[C@@H](CCCCN)C(=O)N[C@@H](CCCCN)C(=O)O)[C@@H](C)O)C(C)C)[C@@H](C)O)[C@@H](C)CC)[C@@H](C)CC)C(C)C)[C@@H](C)CC)[C@@H](C)O)[C@@H](C)CC [IISTIGKLVKWIIKTVNKFTKK] |  |  | 2.7 µM (≈ 6.91 µg/mL) | 4.7 µM (≈ 12 µg/mL) | 
3 | CC(C)[C@H](NC(=O)[C@H](Cc1ccc(O)cc1)NC(=O)[C@H](CO)NC(=O)[C@H](CCCCN)NC(=O)[C@@H](N)CCCCN)C(=O)N[C@@H](CCCN=C(N)N)C(=O)N[C@@H](CCCN=C(N)N)C(=O)N[C@@H](Cc1c[nH]c2ccccc12)C(=O)N[C@@H](CCCN=C(N)N)C(=O)N[C@@H](CO)C(N)=O [KKSYVRRWRS] | > 100 µM | > 100 µM |  |  | > 100 µM
4 | CC[C@H](C)[C@H](NC(=O)[C@H](CCC(N)=O)NC(=O)[C@H](CCCCN)NC(=O)[C@@H](NC(=O)[C@H](CC(C)C)NC(=O)[C@H](CCC(N)=O)NC(=O)[C@H](C)NC(=O)[C@H](Cc1ccccc1)NC(=O)[C@@H](NC(=O)[C@H](CC(=O)O)NC(=O)[C@H](CCCCN)NC(=O)CNC(=O)[C@@H](NC(=O)CNC(=O)[C@@H](NC(=O)[C@@H](NC(=O)[C@H](Cc1ccccc1)NC(=O)[C@H](CC(=O)O)NC(=O)[C@H](CC(C)C)NC(=O)[C@H](CC(C)C)NC(=O)CN)C(C)C)[C@@H](C)O)C(C)C)[C@@H](C)CC)[C@@H](C)CC)C(N)=O [GLLDFVTGVGKDIFAQLIKQI] | 64 µM (≈ 146 µg/mL) | 64 µM (≈ 146 µg/mL) |  |  | 
5 | CC(C)C[C@H](NC(=O)[C@H](Cc1ccc(O)cc1)NC(=O)[C@@H]1CCCN1C(=O)[C@H](Cc1c[nH]c2ccccc12)NC(=O)[C@H](Cc1c[nH]c2ccccc12)NC(=O)[C@H](Cc1c[nH]c2ccccc12)NC(=O)[C@@H]1CCCN1C(=O)[C@H](Cc1ccc(O)cc1)NC(=O)[C@H](CCCN=C(N)N)NC(=O)[C@H](CCCN=C(N)N)NC(=O)[C@@H](N)C(C)C)C(=O)N[C@@H](CCCN=C(N)N)C(=O)N[C@@H](CCCN=C(N)N)C(N)=O [VRRYPWWWPYLRR] |  |  | 10.3 µM (≈ 20 µg/mL) | 2.58 µM (≈ 5 µg/mL) | 
6 | CC[C@H](C)[C@H](NC(=O)[C@@H](NC(=O)[C@H](CCCCN)NC(=O)[C@H](CC(C)C)NC(=O)[C@H](CC(C)C)NC(=O)[C@@H](N)CCCCN)C(C)C)C(=O)N[C@@H](CCCCN)C(=O)N[C@@H](CCCCN)C(=O)N[C@@H](CC(C)C)C(=O)N[C@@H](CC(C)C)C(N)=O [KLLKVIKKLL] | 5.02 µM (≈ 6 µg/mL) | 7.53 µM (≈ 8.99 µg/mL) |  |  | 
7 | CC(C)[C@H](NC(=O)[C@H](Cc1ccc(O)cc1)NC(=O)[C@H](CO)NC(=O)[C@H](CCCCN)NC(=O)[C@@H](N)Cc1c[nH]c2ccccc12)C(=O)N[C@@H](CCCN=C(N)N)C(=O)N[C@@H](CCCN=C(N)N)C(=O)N[C@@H](Cc1c[nH]c2ccccc12)C(N)=O [WKSYVRRW] | 64 µM (≈ 75.5 µg/mL) | 100 µM (≈ 118 µg/mL) |  |  | > 100 µM
8 | CC(C)C[C@H](NC(=O)[C@H](Cc1ccccc1)NC(=O)[C@@H]1CCCN1C(=O)[C@H](Cc1c[nH]c2ccccc12)NC(=O)[C@H](C)NC(=O)[C@H](Cc1c[nH]c2ccccc12)NC(=O)[C@@H]1CCCN1C(=O)[C@H](Cc1ccccc1)NC(=O)[C@H](CCCN=C(N)N)NC(=O)[C@H](CCCN=C(N)N)NC(=O)[C@@H](N)C(C)C)C(=O)N[C@@H](CCCN=C(N)N)C(=O)N[C@@H](CCCN=C(N)N)C(N)=O [VRRFPWAWPFLRR] | 16 µM (≈ 28.6 µg/mL) |  |  |  | 
9 | CC(C)C[C@H](NC(=O)[C@H](CCCCN)NC(=O)[C@H](CCCCN)NC(=O)[C@H](C)NC(=O)[C@H](CC(C)C)NC(=O)[C@H](CCCCN)NC(=O)[C@H](C)NC(=O)[C@H](CC(C)C)NC(=O)[C@H](CCCCN)NC(=O)[C@H](CCCCN)NC(=O)[C@H](C)NC(=O)[C@H](CC(C)C)NC(=O)[C@H](CCCCN)NC(=O)[C@H](C)NC(=O)[C@H](CC(C)C)NC(=O)[C@H](CCCCN)NC(=O)[C@H](CCCCN)NC(=O)[C@H](C)NC(=O)[C@H](CC(C)C)NC(=O)[C@@H](N)CCCCN)C(=O)N[C@@H](C)C(N)=O [KLAKKLAKLAKKLAKLAKKLA] | 4 µM (≈ 9.1 µg/mL) | 4 µM (≈ 9.1 µg/mL) |  |  | 4 µM (≈ 9.1 µg/mL)
10 | CC[C@H](C)[C@H](NC(=O)CNC(=O)[C@H](CCC(N)=O)NC(=O)CNC(=O)[C@H](Cc1c[nH]c2ccccc12)NC(=O)[C@H](CCCCN)NC(=O)[C@H](CCC(=O)O)NC(=O)[C@@H](NC(=O)[C@H](CCCCN)NC(=O)[C@H](CCCCN)NC(=O)[C@H](Cc1c[nH]c2ccccc12)NC(=O)[C@H](CC(C)C)NC(=O)[C@H](CCCCN)NC(=O)[C@H](Cc1c[nH]c2ccccc12)NC(=O)[C@@H](N)CCCCN)[C@@H](C)CC)C(=O)NCC(=O)N[C@@H](C)C(=O)N[C@H](C(=O)N[C@@H](CC(C)C)C(=O)N[C@@H](CCCCN)C(=O)N[C@@H](Cc1c[nH]c2ccccc12)C(=O)N[C@@H](CC(C)C)C(=O)N[C@H](C(=O)N[C@H](C(=O)N[C@@H](Cc1c[nH]c2ccccc12)C(=O)N[C@@H](CC(C)C)C(=O)O)[C@@H](C)O)[C@@H](C)O)C(C)C [KWKLWKKIEKWGQGIGAVLKWLTTWL] |  |  |  |  | 32 µM (≈ 102 µg/mL)
11 | CC[C@H](C)[C@H](NC(=O)[C@H](Cc1ccc(O)cc1)NC(=O)[C@H](CCC(N)=O)NC(=O)[C@H](CC(C)C)NC(=O)[C@H](C)N)C(=O)N[C@@H](CCCCN)C(=O)N[C@@H](CC(C)C)C(=O)N[C@@H](CC(C)C)C(=O)N[C@@H](CCCCN)C(=O)N[C@@H](CCC(=O)O)C(N)=O [ALQYIKLLKE] | > 100 µM |  |  |  | > 100 µM
12 | CC[C@H](C)[C@H](NC(=O)[C@H](CCCN=C(N)N)NC(=O)[C@H](CCCCN)NC(=O)[C@@H](N)CC(C)C)C(=O)N[C@@H](CCCCN)C(=O)N[C@H](C(=O)N[C@@H](CC(C)C)C(=O)N[C@@H](CC(C)C)C(N)=O)[C@@H](C)O [LKRIKTLL] | > 31.5 µM | > 31.5 µM |  |  | 
13 | CC[C@H](C)[C@H](NC(=O)[C@@H](N)C(C)C)C(=O)N[C@@H](C)C(=O)N[C@@H](Cc1ccccc1)C(=O)N[C@@H](C)C(=O)N[C@@H](CCCCN)C(=O)N[C@H](C(=O)N[C@@H](CCCCN)C(=O)N[C@@H](CCC(=O)O)C(=O)N[C@@H](C)C(=O)N[C@@H](CCCCN)C(=O)N[C@@H](C)C(=O)N[C@@H](CCCCN)C(=O)N[C@@H](CC(C)C)C(=O)N[C@@H](CCCCN)C(=O)NCC(=O)N[C@@H](CCC(N)=O)C(=O)N[C@@H](C)C(=O)N[C@@H](CCCCN)C(=O)NCC(=O)O)[C@@H](C)O [VIAFAKTKEAKAKLKGQAKG] |  |  | > 123 µM |  | 
14 | CC(C)C[C@H](NC(=O)[C@H](C)NC(=O)[C@@H](N)CO)C(=O)N[C@H](C(=O)NCC(=O)N[C@H]1CSSC[C@@H](C(=O)N[C@@H](Cc2ccccc2)C(=O)NCC(=O)N[C@@H](CCCN=C(N)N)C(=O)NCC(=O)O)NC(=O)[C@@H]2CCCN2C(=O)[C@H](CCCCN)NC(=O)[C@@H]2CCCN2C(=O)[C@@H]2CCCN2C(=O)[C@H](Cc2c[nH]c3ccccc23)NC(=O)[C@H](CO)NC(=O)[C@H](CCCCN)NC(=O)[C@H]([C@@H](C)O)NC(=O)[C@H](Cc2c[nH]c3ccccc23)NC1=O)C(C)C [SALVGCWTKSWPPKPCFGRG] |  | 23 µM (≈ 50 µg/mL) |  |  | 
15 | CC(C)C[C@H](NC(=O)[C@H](C)NC(=O)[C@@H](N)CO)C(=O)N[C@H](C(=O)NCC(=O)N[C@H]1CSSC[C@@H](C(=O)N[C@@H](Cc2ccccc2)C(=O)NCC(=O)N[C@@H](CCCN=C(N)N)C(=O)O)NC(=O)[C@@H]2CCCN2C(=O)[C@H](CCCCN)NC(=O)[C@@H]2CCCN2C(=O)[C@@H]2CCCN2C(=O)[C@H](Cc2c[nH]c3ccccc23)NC(=O)[C@H](CO)NC(=O)[C@H](CCCCN)NC(=O)[C@H]([C@@H](C)O)NC(=O)[C@H](Cc2c[nH]c3ccccc23)NC1=O)C(C)C [SALVGCWTKSWPPKPCFGR] | 23.6 µM (≈ 50 µg/mL) | 11.8 µM (≈ 25 µg/mL) |  |  | 
16 | CC(C)C[C@H](NC(=O)CN)C(=O)N[C@@H](Cc1ccccc1)C(=O)N[C@@H](CC(=O)O)C(=O)N[C@H](C(=O)N[C@H](C(=O)N[C@@H](CCCCN)C(=O)NCC(=O)N[C@H](C(=O)N[C@@H](CC(C)C)C(=O)N[C@@H](CCCCN)C(=O)NCC(=O)N[C@@H](C)C(=O)NCC(=O)N[C@@H](CCCCN)C(=O)N[C@@H](CC(N)=O)C(=O)N[C@H](C(=O)N[C@@H](C)C(=O)NCC(=O)N[C@@H](CO)C(=O)N[C@@H](CC(C)C)C(=O)N[C@@H](CC(C)C)C(=O)N[C@@H](CCC(=O)O)C(=O)N[C@@H](CCC(N)=O)C(=O)N[C@@H](CC(C)C)C(=O)N[C@@H](CCCCN)C(=O)N[C@H]1CSSC[C@@H](C(=O)O)NC(=O)CNC(=O)CNC(=O)[C@H](CO)NC(=O)[C@H](CC(C)C)NC(=O)[C@H](CCCCN)NC1=O)C(C)C)C(C)C)C(C)C)C(C)C [GLFDVVKGVLKGAGKNVAGSLLEQLKCKLSGGC] | 30 µM (≈ 98.6 µg/mL) | 30 µM (≈ 98.6 µg/mL) |  |  | 
17 | CC[C@H](C)[C@H](NC(=O)[C@@H](NC(=O)[C@H](CC(N)=O)NC(=O)[C@H](CC(C)C)NC(=O)[C@H](CC(C)C)NC(=O)CN)C(C)C)C(=O)N[C@@H](CCCCN)C(=O)N[C@@H](CC(=O)O)C(=O)N[C@H](C(=O)N[C@@H](C)C(=O)N[C@@H](CCC(N)=O)C(=O)N[C@@H](CC(N)=O)C(=O)N[C@@H](CC(C)C)C(=O)N[C@@H](Cc1ccccc1)C(=O)N[C@@H](C)C(=O)N[C@@H](C)C(=O)N[C@@H](C)C(=O)N[C@@H](CC(C)C)C(=O)N[C@@H](CC(=O)O)C(=O)N[C@@H](CCCCN)C(=O)N[C@@H](CC(C)C)C(=O)N[C@@H](CCCCN)C(=O)N[C@H]1CSSC[C@@H](C(=O)N[C@@H](CC(N)=O)C(=O)O)NC(=O)[C@H](CCCCN)NC(=O)[C@H]([C@@H](C)O)NC(=O)[C@H](C(C)C)NC(=O)[C@H](CCCCN)NC1=O)[C@@H](C)O [GLLNVIKDTAQNLFAAALDKLKCKVTKCN] | 80 µM (≈ 251 µg/mL) | > 160 µM |  |  | 
